Experimental data taken from BindingDB's records for doi:10.1021/jm100470t (Ume&#163, 2010).

Test: Inhibition of Escherichia coli UTI89 PapD chaperon assessed as inhibition of biofilm formation

An IC50 of 11 µM was found for `Cc1cccc(-c2sc3c(C4CC4)c(Cc4cccc5ccccc45)cc(=O)n3c2C(=O)O)c1` in this work.

An IC50 of 78 µM was found for `O=C(O)c1c(-c2ccoc2)sc2c(C3CC3)c(Cc3cccc4ccccc34)cc(=O)n12` in this work.

An IC50 of 11 µM was found for `O=C(O)c1c(-c2ccccc2)sc2c(C3CC3)c(Cc3cccc4ccccc34)cc(=O)n12` in this work.

An IC50 of 13 µM was found for `Cc1ccc(-c2sc3c(C4CC4)c(Cc4cccc5ccccc45)cc(=O)n3c2C(=O)O)cc1` in this work.

An IC50 of 39 µM was found for `CS(=O)(=O)NC(=O)c1c(-c2ccccc2)sc2c(C3CC3)c(Cc3cccc4ccccc34)cc(=O)n12` in this work.

An IC50 of 159 µM was found for `O=C(Nc1ccccc1)c1sc2c(C3CC3)c(Cc3cccc4ccccc34)cc(=O)n2c1C(=O)O` in this work.

An IC50 of 90 µM was found for `Cc1sc2c(C3CC3)c(Cc3cccc4ccccc34)cc(=O)n2c1C(=O)O` in this work.

An IC50 of 7 µM was found for `O=C(O)c1c(Cc2ccccc2)sc2c(C3CC3)c(Cc3cccc4ccccc34)cc(=O)n12` in this work.

An IC50 of 304 µM was found for `CC(C)(O)c1sc2c(C3CC3)c(Cc3cccc4ccccc34)cc(=O)n2c1C(=O)O` in this work.

An IC50 of 61 µM was found for `O=C(O)c1c(-c2ccco2)sc2c(C3CC3)c(Cc3cccc4ccccc34)cc(=O)n12` in this work.

An IC50 of 25 µM was found for `O=C(O)c1c(-c2ccsc2)sc2c(C3CC3)c(Cc3cccc4ccccc34)cc(=O)n12` in this work.
